Measured values from ChEMBL document CHEMBL5725801, “Fused heterocyclic compounds as CaM kinase inhibitors” (2018).
Where “and” joins values, the source holds several entries; their conditions need not be identical. Equal values may be shown once.

Assay: CaMKII Cell-Based Activity: CaMKII activity in neonatal rat ventricular myocytes (NRVM) was measured by monitoring the phosphorylation level of phospholamban using high-content imaging. NRVMs were plated in a clear bottom 384-well plate in medium supplemented with 10% fetal bovine serum (FBS) and incubated at 37° C., 5% CO2 overnight. The medium was changed to a serum-free medium and compounds were dosed to the cells. The cells were incubated at 37° C., 5% CO2 for 4 hours and were then treated with 100 nM ATX-II (Alomone Labs) to activate CaMKII. 10 minutes after the addition of ATX-II, the cells were fixed with 4% formaldehyde followed by permeabilization with 0.1% triton X100. The fixed cells were stained with an anti-phospho-phospholamban primary antibody (Santa Cruz Biotechnology) and an Alexa488-labeled anti-rabbit IgG secondary antibody (Life Technologies Corporation) as well as Hoechst 33342 (Life Technologies Corporation). The cells were imaged using an ArrayScan VTI (Cellomics) and analyzed for cells containing a positive fluorescent signal at 485 nm, reported as % responder. The % responders were plotted against the compound concentration to determine the compounds EC50.

Row | Structure (SMILES) | EC50
1 | C[C@@H](CNC(=O)c1ccnc(-c2cnn3ccc(-c4cccs4)nc23)c1)NCCO | 301 nM
2 | O=C(NC[C@@H]1CCCN1)c1ccnc(-c2cnn3ccc(-c4cccs4)nc23)c1 | 125 nM
3 | CCN(CC)C(C)CNC(=O)c1ccnc(-c2cnn3ccc(-c4ccccc4)nc23)c1 (configuration not stated) | 103 nM
4 | CC(C)NC(CNC(=O)c1ccnc(-c2cnn3ccc(-c4ccccc4)nc23)c1)C(C)C (configuration not stated) | 152 nM
5 | CCC(CNC(=O)c1ccnc(-c2cnn3ccc(-c4cccs4)nc23)c1)NC(C)C (configuration not stated) | 60 nM
6 | C[C@@H](CNC(=O)c1ccnc(-c2cnn3ccc(-c4cccs4)nc23)c1)NCCF | 95.2 nM
7 | O=C(NCC1CCCCN1)c1ccnc(-c2cnn3ccc(-c4cccs4)nc23)c1 (configuration not stated) | 288 nM
8 | C[C@@H](CNC(=O)c1ccnc(-c2cnn3ccc(-c4ccccc4)nc23)c1)NCc1ncccn1 | 779 nM
9 | N[C@H]1CCC[C@@H]1NC(=O)c1ccnc(-c2cnn3ccc(-c4ccccc4)nc23)c1 | 287 nM
10 | CN(C)CCNC(=O)c1ccnc(-c2cnn3ccc(-c4ccccc4)nc23)c1 | 320 nM
11 | O=C(NC[C@@H]1C[C@H](F)CN1)c1ccnc(-c2cnn3ccc(-c4cccs4)nc23)c1 | 386 nM
12 | CC[C@@]1(CNC(=O)c2ccnc(-c3cnn4ccc(-c5ccccc5)nc34)c2)CCCN1 | 279 nM
13 | CCC[C@@]1(CNC(=O)c2ccnc(-c3cnn4ccc(-c5cccs5)nc34)c2)CCCN1 | 99.2 nM
14 | CC[C@]1(CNC(=O)c2ccnc(-c3cnn4ccc(-c5ccccc5)nc34)c2)CCCN1 | 143 nM
15 | O=C(c1ccnc(-c2cnn3ccc(-c4cccs4)nc23)c1)N1C2CCNCC1CC2 (configuration not stated) | 187 nM
16 | CC(CN)NC(=O)c1ccnc(-c2cnn3ccc(-c4ccccc4)nc23)c1 (configuration not stated) | 175 nM
17 | O=C(NC[C@@H]1CCN1)c1ccnc(-c2cnn3ccc(-c4cccs4)nc23)c1 | 132 nM
18 | NC[C@H]1CC(F)(F)CN1C(=O)c1ccnc(-c2cnn3ccc(-c4cccs4)nc23)c1 | 316 nM
19 | CCN(CC(F)F)[C@@H](C)CNC(=O)c1ccnc(-c2cnn3ccc(-c4cccs4)nc23)c1 | 197 nM
20 | O=C(c1ccnc(-c2cnn3ccc(-c4cccs4)nc23)c1)N1CC2CCC(C1)NC2 (configuration not stated) | 95.4 nM
21 | N[C@H]1CCCN(C(=O)c2ccnc(-c3cnn4ccc(-c5cccs5)nc34)c2)C1 | 217 nM
22 | CC1(C)CNC1CNC(=O)c1ccnc(-c2cnn3ccc(-c4ccccc4)nc23)c1 (configuration not stated) | 166 nM
23 | C[C@@H](NC(=O)c1ccnc(-c2cnn3ccc(-c4cccs4)nc23)c1)[C@@H]1CCCN1 | 518 nM
24 | O=C(c1ccnc(-c2cnn3ccc(-c4ccccc4)nc23)c1)N1C2CCCC1CNCC2 (configuration not stated) | 51.6 nM

Row | Structure (SMILES) | EC50
25 | O=C(NCC1CCCCCN1)c1ccnc(-c2cnn3ccc(-c4cccs4)nc23)c1 (configuration not stated) | 347 nM
26 | CCN[C@@H](CO)CNC(=O)c1ccnc(-c2cnn3ccc(-c4ccccc4)nc23)c1 | 243 nM
27 | CCN(CCN)C(=O)c1ccnc(-c2cnn3ccc(-c4ccccc4)nc23)c1 | 169 nM
28 | O=C(c1ccnc(-c2cnn3ccc(-c4cccs4)nc23)c1)N1CC2CCC[C@@H](C1)NC2 | 54.3 nM
29 | N[C@@H](CO)CNC(=O)c1ccnc(-c2cnn3ccc(-c4ccccc4)nc23)c1 | 334 nM
30 | N[C@H]1CCN(C(=O)c2ccnc(-c3cnn4ccc(-c5cccs5)nc34)c2)C1 | 172 nM
31 | C[C@@H]1CNCCN1C(=O)c1ccnc(-c2cnn3ccc(-c4cccs4)nc23)c1 | 208 nM
32 | CC(C)(N)CNC(=O)c1ccnc(-c2cnn3ccc(-c4ccccc4)nc23)c1 | 110 nM
33 | CC(C)N[C@@H](C)CNC(=O)c1ccnc(-c2cnn3ccc(-c4cccs4)nc23)c1 | 166 nM
34 | CN1CCC[C@H]1CNC(=O)c1ccnc(-c2cnn3ccc(-c4cccs4)nc23)c1 | 173 nM
35 | N[C@H]1C[C@@H]2CCC[C@H]1N2C(=O)c1ccnc(-c2cnn3ccc(-c4ccccc4)nc23)c1 | 74 nM
36 | O=C(NC[C@H]1CCN1)c1ccnc(-c2cnn3ccc(-c4cccs4)nc23)c1 | 126 nM
37 | O=C(NCC1CCCCN1)c1ccnc(-c2cnn3ccc(-c4ccccc4)nc23)c1 (configuration not stated) | 955 nM
38 | O=C(c1ccnc(-c2cnn3ccc(-c4cccs4)nc23)c1)N1CC2CNC(COC2)C1 (configuration not stated) | 259 nM
39 | N[C@@H]1CCC[C@H]1NC(=O)c1ccnc(-c2cnn3ccc(-c4ccccc4)nc23)c1 | 259 nM
40 | CC[C@@]1(CNC(=O)c2ccnc(-c3cnn4ccc(-c5cccs5)nc34)c2)CCCN1 | 129 nM
41 | C[C@@]1(CNC(=O)c2ccnc(-c3cnn4ccc(-c5cccs5)nc34)c2)CCCN1 | 142 nM
42 | CCC(N)CNC(=O)c1ccnc(-c2cnn3ccc(-c4cccs4)nc23)c1 (configuration not stated) | 22.9 nM
43 | CCNC(CNC(=O)c1ccnc(-c2cnn3ccc(-c4ccccc4)nc23)c1)C(C)C (configuration not stated) | 107 nM
44 | N[C@H]1CCN(C(=O)c2ccnc(-c3cnn4ccc(-c5ccccc5)nc34)c2)C1 | 200 nM
45 | C[C@@H](CNC(=O)c1ccnc(-c2cnn3ccc(-c4cccs4)nc23)c1)NCC(F)F | 443 nM and 149 nM
46 | CN(C)CCNC(=O)c1ccnc(-c2cnn3ccc(-c4cccs4)nc23)c1 | 116 nM
47 | N[C@@H]1CCC[C@@H]1NC(=O)c1ccnc(-c2cnn3ccc(-c4ccccc4)nc23)c1 | 303 nM
48 | C[C@@H](CNC(=O)c1ccnc(-c2cnn3ccc(-c4cccs4)nc23)c1)NCC(F)(F)F | 717 nM

Continued, values first:

Row | EC50 | Structure (SMILES)
49 | 17.1 nM | CCN(CC)CCNC(=O)c1ccnc(-c2cnn3ccc(-c4cccs4)nc23)c1
50 | 59.7 nM | CCc1cc(C(=O)NC[C@H](C)N(CC)CC)cc(-c2cnn3ccc(-c4cccs4)nc23)n1
51 | 21.4 nM | CCN(CC)[C@@H](C)CNC(=O)c1ccnc(-c2cnn3ccc(-c4cccs4)nc23)c1
52 | 44.1 nM | CC(C)C(N)CNC(=O)c1ccnc(-c2cnn3ccc(-c4ccccc4)nc23)c1 (configuration not stated)
53 | 58.3 nM | NC[C@H]1CCCN1C(=O)c1ccnc(-c2cnn3ccc(-c4cccs4)nc23)c1
54 | 45.3 nM | O=C(c1ccnc(-c2cnn3ccc(-c4ccccc4)nc23)c1)N1CCCCC12CCCNC2 (configuration not stated)
55 | 65.6 nM | O=C(c1ccnc(-c2cnn3ccc(-c4ccccc4)nc23)c1)N1CCC2CCNCC21 (configuration not stated)
56 | 29 nM | CCN(CC)[C@@H](C)CNC(=O)c1ccnc(-c2cnn3ccc(-c4ccccc4)nc23)c1
57 | 61.9 nM | CCN(CC)[C@@H](CO)CNC(=O)c1ccnc(-c2cnn3ccc(-c4ccccc4)nc23)c1
58 | 69.3 nM | CCN(CC)[C@@H](C)CNC(=O)c1cc(Cl)nc(-c2cnn3ccc(-c4cccs4)nc23)c1
59 | 65.2 nM | CCCN[C@@H](C)CNC(=O)c1ccnc(-c2cnn3ccc(-c4cccs4)nc23)c1
60 | 62.2 nM | C[C@H](N)CNC(=O)c1ccnc(-c2cnn3ccc(-c4cccs4)nc23)c1
61 | 15.1 nM | C[C@@H](CNC(=O)c1ccnc(-c2cnn3ccc(-c4cccs4)nc23)c1)NCC1CC1
62 | 66.9 nM | O=C(NC[C@]1(CC2CC2)CCCN1)c1ccnc(-c2cnn3ccc(-c4cccs4)nc23)c1
63 | 11.8 nM | CCCC(N)CNC(=O)c1ccnc(-c2cnn3ccc(-c4ccccc4)nc23)c1 (configuration not stated)
64 | 37.2 nM | CCN(CC)C(CNC(=O)c1ccnc(-c2cnn3ccc(-c4ccccc4)nc23)c1)C(C)C (configuration not stated)
65 | 33 nM | CCN[C@@H](C)CNC(=O)c1ccnc(-c2cnn3ccc(-c4cccs4)nc23)c1
66 | 80.9 nM | CCC(N)CNC(=O)c1ccnc(-c2cnn3ccc(-c4ccccc4)nc23)c1 (configuration not stated)
67 | 80.8 nM | O=C(c1ccnc(-c2cnn3ccc(-c4cccs4)nc23)c1)N1CCC[C@@H]2CCNC[C@@H]21
68 | 31.2 nM | CCCC(CNC(=O)c1ccnc(-c2cnn3ccc(-c4ccccc4)nc23)c1)N(CC)CC (configuration not stated)
69 | 80.4 nM | CCN(CC)[C@@H](C)CNC(=O)c1cc(-c2cnn3ccc(-c4cccs4)nc23)nc(C(C)C)c1
70 | 25.3 nM | CCC(C)N[C@@H](C)CNC(=O)c1ccnc(-c2cnn3ccc(-c4ccccc4)nc23)c1 (some centres not stated)

Row | EC50 | Structure (SMILES)
71 | 35.4 nM | CCN(CC)C(C)CNC(=O)c1ccnc(-c2cnn3ccc(-c4cccs4)nc23)c1 (configuration not stated)
72 | 88.8 nM | CC(C)C(CNC(=O)c1ccnc(-c2cnn3ccc(-c4ccccc4)nc23)c1)NCC1CC1 (configuration not stated)
73 | 6.81 nM | O=C(c1ccnc(-c2cnn3ccc(-c4ccccc4)nc23)c1)N1CCCC[C@@H]1[C@@H]1CCCN1
74 | 48.5 nM | O=C(c1ccnc(-c2cnn3ccc(-c4ccccc4)nc23)c1)N1CCC2CNCC21 (configuration not stated)
75 | 8.15 nM | CCCNC(CC)CNC(=O)c1ccnc(-c2cnn3ccc(-c4ccccc4)nc23)c1 (configuration not stated)
76 | 45.9 nM | CCN[C@H](CNC(=O)c1ccnc(-c2cnn3ccc(-c4ccccc4)nc23)c1)COc1ncccn1
77 | 76.7 nM | CCC(CNC(=O)c1ccnc(-c2cnn3ccc(-c4ccccc4)nc23)c1)NCC1CC1 (configuration not stated)
78 | 67.4 nM | CCNC(C)(C)CNC(=O)c1ccnc(-c2cnn3ccc(-c4ccccc4)nc23)c1
79 | 8.2 nM | O=C(c1ccnc(-c2cnn3ccc(-c4ccccc4)nc23)c1)N1CCCC12CCCNC2 (configuration not stated)
80 | 71.7 nM | N[C@@H]1CCC[C@H]2CCCN(C(=O)c3ccnc(-c4cnn5ccc(-c6ccccc6)nc45)c3)[C@H]21
81 | 56.1 nM | CCN[C@@H](C)CNC(=O)c1ccnc(-c2cnn3ccc(-c4ccccc4)nc23)c1
82 | 73.1 nM | CCN[C@H](C)CNC(=O)c1ccnc(-c2cnn3ccc(-c4ccccc4)nc23)c1
83 | 34.8 nM | CCN[C@H](C)CNC(=O)c1ccnc(-c2cnn3ccc(-c4cccs4)nc23)c1
84 | 10.5 nM | CCN(CC)[C@@H](C)CNC(=O)c1cc(N)nc(-c2cnn3ccc(-c4cccs4)nc23)c1
85 | 47.3 nM | CCN(CC)[C@H](CNC(=O)c1ccnc(-c2cnn3ccc(-c4ccccc4)nc23)c1)COc1ncccn1
86 | 45.6 nM | C[C@H](N)[C@@H]1CCCCN1C(=O)c1ccnc(-c2cnn3ccc(-c4ccccc4)nc23)c1
87 | 46.8 nM | CCNC(CC)CNC(=O)c1ccnc(-c2cnn3ccc(-c4ccccc4)nc23)c1 (configuration not stated)
88 | 49 nM | CN(C)c1cc(C(=O)N2CCCC[C@@H]2CN)cc(-c2cnn3ccc(-c4cccs4)nc23)n1
89 | 43.3 nM | CCN[C@@H](CC)CNC(=O)c1ccnc(-c2cnn3ccc(-c4cccs4)nc23)c1
90 | 66 nM | CC(C)C[C@@]1(CNC(=O)c2ccnc(-c3cnn4ccc(-c5cccs5)nc34)c2)CCCN1
91 | 42.9 nM | CCCNC(CNC(=O)c1ccnc(-c2cnn3ccc(-c4ccccc4)nc23)c1)C(C)C (configuration not stated)
92 | 41.5 nM | O=C(NCC12CCCN1CCC2)c1ccnc(-c2cnn3ccc(-c4cccs4)nc23)c1
